Paper PMC5365654, “Cyclic Boronates Inhibit All Classes of β-Lactamases” (Antimicrobial Agents and Chemotherapy, 2017)
Like-named read-outs stand apart in the source and are kept apart here.

How the values were obtained:
CTX-M-15 = biological target: T1, CTX-M-15 (Escherichia coli, UniProt Q9EXV5); assay: FC5 fluorogenic β-lactamase inhibition assay, CTX-M-15; type: biochemical; settings: FC5 substrate, read-out: IC50, nM (mean ± SD) for CTX-M-15
T1 construct: hexahistidine (pOPINF, 3C-cleavable) (N, cleaved yes); made in house; host or cells: E. coli BL21(DE3)
T1 sequence (Q9EXV5 entry or part of it): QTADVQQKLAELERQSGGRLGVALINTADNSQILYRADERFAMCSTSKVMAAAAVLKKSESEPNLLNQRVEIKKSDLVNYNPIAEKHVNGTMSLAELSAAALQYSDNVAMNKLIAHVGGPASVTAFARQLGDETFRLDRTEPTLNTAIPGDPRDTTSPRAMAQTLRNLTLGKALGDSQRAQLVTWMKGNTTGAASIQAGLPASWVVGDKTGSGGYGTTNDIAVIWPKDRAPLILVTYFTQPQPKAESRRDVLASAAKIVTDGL
From the text: To investigate the extent to which cyclic boronates inhibit class C β-lactamases as well as the important class A ESBL and class D carbapenemase targets, we used a fluorogenic assay ([22]) to screen the cyclic boronates, which we have found to inhibit other β-lactamases ([21]), against them. The β-lactamases used for screening included TEM-1 and CTX-M-15 (class A), the metallo-β-lactamase (MBL) from Bacillus cereus (BcII), Verona integron-encoded metallo-β-lactamase 1 (VIM-1) (class B), AmpC from P. aeruginosa (class C), and OXA-23 and OXA-48 (class D), collectively representing all classes of β-lactamase.
Inhibition assays were carried out using FC5 as a fluorogenic reporter substrate ([22]). Enzyme concentrations and buffers were the same as those employed in steady-state kinetic studies (see Table S2 in the supplemental material). […] The concentration of FC5 employed was 10 μM for TEM-1 and 5 μM for all other enzymes. […] Data at 0 min of incubation were obtained by addition of enzyme to a premixed solution of inhibitor and substrate. Residual enzyme activity was determined for a range of inhibitor concentrations. Nonlinear regression fitting of IC50 curves was carried out using a three-parameter dose-response curve in GraphPad Prism. Errors in IC50 are expressed as [σ(log IC50)/log IC50)] × IC50.
45 Steady-state kinetics studies used a Pherastar FS microplate reader with UV-STAR® 96-well,
47 black, µclear® plates (Greiner Bio-One) for FC5 (1). Buffers employed were 100 mM
48 phosphate buffer pH 7.5, 0.01% (v/v) Triton X-100 for TEM-1, CTX-M-15 and AmpC, 100 mM
49 phosphate buffer pH 7.5, 50 mM sodium bicarbonate, 0.01% Triton X-100 for OXA-23 and
51 1 µM ZnSO4, 0.01% Triton X-100 for MBL assays. Reaction progress was monitored at 298 K
53 intensity (λex = 380 nm, λem = 480 nm) for FC5 (1). Suitable enzyme concentrations for
54 kinetic analysis were determined by monitoring changes in absorbance/fluorescence for
55 enzyme concentrations between 20 nM and 20 pM.
Kinetic constants were determined using the initial rate of hydrolysis with the
57 reaction initiated through the addition of enzyme to pre-prepared substrate concentrations.
58 Substrate concentrations ranged between 400 µM and 0.4 µM. The Michaelis-Menten
59 equation was fitted to data by non-linear regression using GraphPad Prism software to
60 calculate the Michaelis-Menten constant and the limiting rate (2).

E. coli EC114, ST 131 = assay: Broth microtiter dilution MIC, EC114; type: cell-based; settings: Escherichia coli, TEM-1 (A), CTX-M-15 (A), OXA-1 (D), read-out: MIC (mg/liter) for β-lactam
Experimental: (§1) The in vitro activity of cyclic boronate 2 was assessed using nine clinical isolates carrying multiple β-lactamases (Table 3). The isolates selected included Enterobacteriaceae (E. coli ST 131, Klebsiella pneumoniae ST 258, and Providencia stuartii) producing class A ESBLs (CTX-M-15, CTX-M-27, SHV-5, and VEB-1), serine carbapenemase (KPC-2) and metallo-carbapenemases (VIM-1 and VIM-2), plasmid-mediated AmpC (CMY-2), and/or carbapenem-hydrolyzing OXA-48-like oxacillinases (OXA-181 and OXA-232) in various combinations. The activity against carbapenemase-producing strains of Pseudomonas aeruginosa (VIM-2) and Acinetobacter baumannii (OXA-23) was also investigated. All isolates have previously undergone extensive phenotypic and genotypic characterization ([60]).
(§2) MICs were determined using commercial Sensititre GN4F panels (Thermo Scientific, UK; lot B55051) and Mueller-Hinton II cation-adjusted broth (Oxoid, UK), with and without the addition of cyclic boronate 2 at a fixed concentration of 10 μg/ml. Plates were incubated at 37°C for 18 h and MICs read by eye following the addition of alamarBlue reagent (Trek Diagnostics).

E. coli EC107, ST 131 = assay: Broth microtiter dilution MIC, EC107; type: cell-based; settings: Escherichia coli, CTX-M-15 (A), OXA-1 (D), read-out: MIC (mg/liter) for β-lactam
Experimental: as §1, §2

K. pneumoniae KP15 = assay: Broth microtiter dilution MIC, KP15; type: cell-based; settings: Klebsiella pneumoniae, TEM-1 (A), SHV-11 (A), KPC-2 (A), read-out: MIC (mg/liter) for β-lactam
Experimental: as §1, §2

K. pneumoniae KP58 = assay: Broth microtiter dilution MIC, KP58; type: cell-based; settings: Klebsiella pneumoniae, SHV-11 (A), VIM-4 (B), read-out: MIC (mg/liter) for β-lactam
Experimental: as §1, §2

E. coli EC86 = assay: Broth microtiter dilution MIC, EC86; type: cell-based; settings: CTX-M-15 (A), CMY-4 (C), OXA-181 (D); for MIC: Escherichia coli
Experimental: as §1, §2

E. coli EC113, ST 131 = assay: Broth microtiter dilution MIC, EC113; type: cell-based; settings: Escherichia coli, CTX-M-27 (A), read-out: MIC (mg/liter) for β-lactam
Experimental: as §1, §2

K. pneumoniae KP41 = assay: Broth microtiter dilution MIC, KP41; type: cell-based; settings: Klebsiella pneumoniae, TEM-1, SHV-1, SHV-5, SHV-11, CTX-M-15 (A), OXA-232 (D), read-out: MIC (mg/liter) for β-lactam
Experimental: as §1, §2

[1] = test system: P. aeruginosa PA12, ST 111; assay: Broth microtiter dilution MIC, PA12; type: cell-based; settings: Pseudomonas aeruginosa, VIM-2 (B), read-out: MIC (mg/liter) for β-lactam
Experimental: as §1, §2

P. stuartii PS71 = assay: Broth microtiter dilution MIC, PS71; type: cell-based; settings: Providencia stuartii, TEM-1 (A), SHV-5 (A), VEB-1 (A), VIM-1 (B), read-out: MIC (mg/liter) for β-lactam
Experimental: as §1, §2

A. baumannii AB14 = assay: Broth microtiter dilution MIC, AB14; type: cell-based; settings: Acinetobacter baumannii, OXA-23 (D), OXA-51 (D), read-out: MIC (mg/liter) for β-lactam
Experimental: as §1, §2

[2] = with cyclic boronate 2 (10 mg/liter) supplementation
[3] = without cyclic boronate 2 supplementation
[4] = E. coli EC86, with cyclic boronate 2 (10 mg/liter) supplementation, read-out: MIC (mg/liter) for β-lactam
[5] = EC86, read-out: MIC (mg/liter) for β-lactam, E. coli EC86, without cyclic boronate 2 supplementation

| SMILES | MIC (E. coli EC114, ST 131; [2]) [mg/L] | MIC (E. coli EC107, ST 131; [2]) [mg/L] | MIC (K. pneumoniae KP15; [2]) [mg/L] | MIC (K. pneumoniae KP15; [3]) [mg/L] | MIC (K. pneumoniae KP58; [2]) [mg/L] | MIC (K. pneumoniae KP58; [3]) [mg/L] | MIC (E. coli EC86; [4]) [mg/L] | MIC (E. coli EC113, ST 131; [2]) [mg/L] | MIC (K. pneumoniae KP41; [2]) [mg/L] | MIC (K. pneumoniae KP41; [3]) [mg/L] | MIC [1, 2] [mg/L] | MIC [1, 3] [mg/L] | MIC (P. stuartii PS71; [2]) [mg/L] | MIC (P. stuartii PS71; [3]) [mg/L] | MIC (A. baumannii AB14; [2]) [mg/L] | MIC (A. baumannii AB14; [3]) [mg/L] | MIC (E. coli EC114, ST 131; [3]) [mg/L] | MIC (E. coli EC107, ST 131; [3]) [mg/L] | MIC (E. coli EC113, ST 131; [3]) [mg/L] | also measured |
| --- | --- | --- | --- | --- | --- | --- | --- | --- | --- | --- | --- | --- | --- | --- | --- | --- | --- | --- | --- | --- |
| NC(=O)[C@@H]1CC[C@@H]2CN1C(=O)N2OS(=O)(=O)O [Avibactam, avibactam] | – | – | – | – | – | – | – | – | – | – | – | – | – | – | – | – | – | – | – | IC50 (CTX-M-15; preincubation 0 min): 9.9 ± 0.2 nM; IC50 (CTX-M-15; preincubation 10 min): 1.1 ± 0.1 nM; IC50 (CTX-M-15; preincubation 30 min): 0.4 ± 0.06 nM; IC50 (CTX-M-15; preincubation 60 min): 0.39 ± 0.01 nM; IC50 (CTX-M-15; preincubation 360 min): 6.4 ± 0.1 nM |
| CO/N=C(\C(=O)N[C@@H]1C(=O)N2C(C(=O)[O-])=C(C[N+]3(C)CCCC3)CS[C@H]12)c1csc(N)n1 [FEP, cefepime] | 8 | 8 | ≤ 4 | > 32 | > 32 | > 32 | ≤ 4 | ≤ 4 | 32 | > 32 | > 32 | > 32 | 8 | > 32 | 32 | > 32 | – | – | – | – |
| CO/N=C(\C(=O)N[C@@H]1C(=O)N2C(C(=O)O)=C(CSc3nc(=O)c(=O)[nH]n3C)CS[C@H]12)c1csc(N)n1 [CRO, ceftriaxone] | < 0.5 | < 0.5 | – | – | – | – | 8 | < 0.5 | – | – | > 32 | > 32 | 16 | > 32 | > 32 | > 32 | > 32 | > 16 | > 32 | MIC (E. coli EC86; [5]): > 16 mg/L |
| CC(C)(O/N=C(\C(=O)N[C@@H]1C(=O)N2C(C(=O)[O-])=C(C[n+]3ccccc3)CS[C@H]12)c1csc(N)n1)C(=O)O [CAZ, ceftazidime] | ≤ 1 | ≤ 1 | 4 | > 16 | 2 | > 16 | 8 | ≤ 1 | > 16 | > 16 | > 16 | > 16 | > 16 | > 16 | > 16 | > 16 | > 16 | > 16 | 8 | MIC (E. coli EC86; [5]): > 16 mg/L |
| C[C@@H](O)[C@H]1C(=O)N2C(C(=O)O)=C(S[C@@H]3CN[C@H](C(=O)Nc4cccc(C(=O)O)c4)C3)[C@H](C)[C@H]12 [ERT, ertapenem] | – | – | – | – | – | – | 4 | – | – | – | – | – | – | – | – | – | – | – | – | – |
| CC1(C)S[C@@H]2[C@H](NC(=O)[C@H](N)c3ccccc3)C(=O)N2[C@H]1C(=O)O [AMP, ampicillin] | > 16 | > 16 | > 16 | > 16 | > 16 | > 16 | > 16 | ≤ 8 | > 16 | > 16 | > 16 | > 16 | > 16 | > 16 | > 16 | > 16 | > 16 | > 16 | > 16 | MIC (mg/liter) for β-lactam (E. coli EC86; E. coli EC86, without cyclic boronate 2 supplementation): >16 mg/L |
| Cc1nnc(SCC2=C(C(=O)O)N3C(=O)[C@@H](NC(=O)Cn4cnnn4)[C@H]3SC2)s1 [FAZ, cefazolin] | 8 | 8 | > 16 | > 16 | > 16 | > 16 | – | 4 | > 16 | > 16 | > 16 | > 16 | 4 | > 16 | > 16 | > 16 | – | – | – | – |
